Eleven compounds from PubChem BioAssay (NCI) can be followed below.

Some test systems named below: A549 NSCLC; KM12 colon; LOX IMVI melanoma; MDA-MB-435; NCI-H23 lung; OVCAR-4 ovarian; SF-539 CNS; TK-10 renal.
Common to all, as to experiment: NCI tumour cell line growth inhibition, 48 h

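Step 1: Grow cells in 96-well plates. Step 2: Expose to compound for 48 hours at 5 concentrations. Step 3: Interpolate endpoints linearly; if unreached, use highest concentration. GI50: concentration for 50% inhibition of growth. Definition used: TGI = concentration required for complete inhibition of growth.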 Where only a bound is given, the exact number is not on record here.

As for `COc1cccc(C2C(C#N)=C(N)Oc3cc4c(cc32)OCO4)c1` (stereo not drawn), the GI50 in the assay with A549 NSCLC is 0.0649 µM; in the assay on KM12 colon, 0.0404 µM; in the assay on LOX IMVI melanoma, 0.234 µM; with MDA-MB-435 it was 0.0162 µM; in the assay on NCI-H23 lung it was 0.0694 µM; with OVCAR-4 ovarian it was 0.457 µM. For the same compound, the GI50 in the assay with SF-539 CNS was 0.0401 µM; with TK-10 renal, 0.728 µM. Further, the TGI with A549 NSCLC was 42.6 µM; in the assay with KM12 colon, 4.27 µM; in the assay with LOX IMVI melanoma, 17.2 µM; in the assay with MDA-MB-435 it was 0.0829 µM; in the assay with NCI-H23 lung, 15.8 µM; in the assay on OVCAR-4 ovarian, above 100 µM. Further, the TGI with SF-539 CNS is above 33.1 µM; with TK-10 renal, 48.4 µM.
For the compound `C[C@]12CCC3=NCCN3C1=CC[C@@H]1[C@@H]2CC[C@@]2(C)[C@H]1CC[C@]2(C)O`, the TGI in the assay on A549 NSCLC, with KM12 colon, in the assay on LOX IMVI melanoma, in the assay on MDA-MB-435, with NCI-H23 lung and in the assay with OVCAR-4 ovarian was above 100 µM each time. The figures for the TGI with SF-539 CNS and in the assay with TK-10 renal were 80 µM and above 100 µM, respectively.
For the compound `CN(C)c1ccc(C2CC(C)(O)Oc3cc4c(cc32)OCO4)cc1` (stereo not drawn), the TGI in the assay with A549 NSCLC is above 100 µM; in the assay on KM12 colon, above 100 µM; in the assay on LOX IMVI melanoma it was above 100 µM; in the assay with MDA-MB-435, 74.1 µM; in the assay on NCI-H23 lung, above 100 µM; in the assay on SF-539 CNS, above 100 µM. In addition, the TGI in the assay with TK-10 renal is above 100 µM.
In the case of `c1cncc(C2ONC3=NCCN32)c1` (stereo not drawn), the GI50 in the assay with A549 NSCLC was 40.5 µM; with KM12 colon, 21.2 µM; in the assay on MDA-MB-435, 50.8 µM; with NCI-H23 lung it was 54 µM; in the assay with OVCAR-4 ovarian, above 100 µM; with SF-539 CNS, 28.9 µM. The GI50 in the assay with TK-10 renal was 10.9 µM. In addition, the TGI in the assay with A549 NSCLC, with KM12 colon, in the assay on MDA-MB-435, in the assay with NCI-H23 lung, with OVCAR-4 ovarian and in the assay on SF-539 CNS was above 100 µM throughout. Besides, the TGI with TK-10 renal was 70.6 µM.
As to `Clc1ccc2c(NCCCN3CCN(c4nc(N5CCOCC5)nc5ccccc45)CC3)ccnc2c1`, the GI50 in the assay with LOX IMVI melanoma is 1.98 µM; in the assay with MDA-MB-435 it was 1.81 µM; in the assay with OVCAR-4 ovarian, 1.9 µM; with SF-539 CNS, 1.68 µM; with TK-10 renal it was 2.04 µM. In addition, the TGI was 3.97 µM in the assay on LOX IMVI melanoma; 3.36 µM in the assay on MDA-MB-435; 4.64 µM with OVCAR-4 ovarian; 3.14 µM in the assay with SF-539 CNS; 4.56 µM with TK-10 renal.
With `COc1cc2cc3c(c(O)c2c(O)c1-c1c(OC)cc2cc4c(c(O)c2c1O)C(=O)O[C@H](C)C4)C(=O)O[C@H](C)C3`, the GI50 in the assay on A549 NSCLC was 39.3 µM; in the assay with KM12 colon it was 38.8 µM; in the assay on LOX IMVI melanoma, 18 µM; in the assay on MDA-MB-435 it was 17.8 µM; with NCI-H23 lung, 32.1 µM; in the assay with OVCAR-4 ovarian, 22.4 µM. Besides, the GI50 with TK-10 renal is 60.3 µM. For the same compound, the TGI in the assay on A549 NSCLC is above 100 µM; in the assay on KM12 colon, above 100 µM; in the assay with LOX IMVI melanoma, 44.6 µM; with MDA-MB-435, 33.8 µM; in the assay with NCI-H23 lung, above 100 µM; with OVCAR-4 ovarian it was above 100 µM. Further, the TGI in the assay with TK-10 renal was above 100 µM.
Regarding `COc1cc(N(CCC#N)CCC#N)ccc1/C(N=Nc1ccc(C(=O)O)cc1)=N/NC(=O)c1cc(Br)ccc1O`, the GI50 was 79.4 µg/mL in the assay with A549 NSCLC; 50.3 µg/mL in the assay with KM12 colon; 84.4 µg/mL with LOX IMVI melanoma; above 150 µg/mL in the assay on MDA-MB-435; above 150 µg/mL with NCI-H23 lung; 30 µg/mL in the assay on OVCAR-4 ovarian. The GI50 in the assay on SF-539 CNS was 85.8 µg/mL. In addition, the TGI was above 150 µg/mL in the assay on A549 NSCLC; above 150 µg/mL with KM12 colon; above 150 µg/mL in the assay on LOX IMVI melanoma; above 150 µg/mL in the assay on MDA-MB-435; above 150 µg/mL in the assay with NCI-H23 lung; 65.5 µg/mL with OVCAR-4 ovarian. Besides, the TGI with SF-539 CNS was above 150 µg/mL.
As for `COC(=O)[C@]1(C)CCC[C@]2(C)[C@@H]1CCC13C[C@@H](C=CO1)[C@@H](C)CC32O` (stereo partly drawn), the GI50 was 33.1 µM in the assay on A549 NSCLC; above 100 µM in the assay with LOX IMVI melanoma; 23.9 µM in the assay with MDA-MB-435; 20.3 µM with NCI-H23 lung; 61.5 µM in the assay on OVCAR-4 ovarian; 0.0516 µM with SF-539 CNS. For the same compound, the TGI with A549 NSCLC, in the assay with LOX IMVI melanoma, in the assay on MDA-MB-435, in the assay on NCI-H23 lung, with OVCAR-4 ovarian and in the assay with SF-539 CNS was above 100 µM throughout.
As for `CCOc1ccc(Nc2nc(-c3c(C)nc4ncccn34)cs2)cc1`, the GI50 with A549 NSCLC was 0.0268 µM; in the assay with KM12 colon, 0.034 µM; in the assay on LOX IMVI melanoma, 0.0382 µM; in the assay on NCI-H23 lung, 0.0623 µM; in the assay with SF-539 CNS, 0.0227 µM; with TK-10 renal, 12.8 µM. Besides, the TGI came out at 20.5 µM with A549 NSCLC; 13.8 µM in the assay on KM12 colon; 17.2 µM in the assay on LOX IMVI melanoma; 22.2 µM in the assay on NCI-H23 lung; 0.0822 µM in the assay with SF-539 CNS; 43 µM with TK-10 renal.
Take `C=C(Cn1c2ccccc2c(=O)c2ccccc21)c1ccc(C(=O)Nc2ccccc2N)cc1`: the GI50 was 28.5 µM with A549 NSCLC; 2.43 µM in the assay on KM12 colon; 50.4 µM in the assay on LOX IMVI melanoma; 45.1 µM with NCI-H23 lung; 0.0786 µM with OVCAR-4 ovarian; 3.59 µM in the assay on SF-539 CNS. The GI50 in the assay on TK-10 renal is above 28.9 µM. Besides, the TGI is above 100 µM in the assay with A549 NSCLC; above 100 µM with KM12 colon; above 100 µM in the assay with LOX IMVI melanoma; above 100 µM in the assay with NCI-H23 lung; 6.06 µM in the assay on OVCAR-4 ovarian; above 100 µM in the assay on SF-539 CNS. Besides, the TGI in the assay with TK-10 renal was above 100 µM.
For `CCCCCCCCCCCCCCC(C)CCC(=O)O` (stereo not drawn), the TGI in the assay with A549 NSCLC, with KM12 colon, with LOX IMVI melanoma, in the assay with NCI-H23 lung, in the assay with OVCAR-4 ovarian and with SF-539 CNS was above 100 µM each time. Moreover, the TGI with TK-10 renal was above 100 µM.
